According to ChEMBL document CHEMBL3856221, “Structural modifications of the serotonin 5-HT7 receptor agonist N-(4-cyanophenylmethyl)-4-(2-biphenyl)-1-piperazinehexanamide (LP-211) to improve in vitro microsomal stability: A case study” (Eur J Med Chem, 2016):
pKi: −log10 of the molar value.

Experiments:
[1] = target: 5-hydroxytryptamine receptor 7 (Homo sapiens, UniProt P34969); test: Displacement of [3H]-5-CT from human 5-HT7b receptor expressed in HEK293 cell membranes after 1 hr by microbeta counting analysis
[2] = target: T1, 5-hydroxytryptamine receptor 1A (Homo sapiens, UniProt P08908); test: Displacement of [3H]-8-OH-DPAT from human 5-HT1A receptor expressed in HEK293 cell membranes after 1 hr by microbeta counting analysis
T1 sequence (P08908 whole entry): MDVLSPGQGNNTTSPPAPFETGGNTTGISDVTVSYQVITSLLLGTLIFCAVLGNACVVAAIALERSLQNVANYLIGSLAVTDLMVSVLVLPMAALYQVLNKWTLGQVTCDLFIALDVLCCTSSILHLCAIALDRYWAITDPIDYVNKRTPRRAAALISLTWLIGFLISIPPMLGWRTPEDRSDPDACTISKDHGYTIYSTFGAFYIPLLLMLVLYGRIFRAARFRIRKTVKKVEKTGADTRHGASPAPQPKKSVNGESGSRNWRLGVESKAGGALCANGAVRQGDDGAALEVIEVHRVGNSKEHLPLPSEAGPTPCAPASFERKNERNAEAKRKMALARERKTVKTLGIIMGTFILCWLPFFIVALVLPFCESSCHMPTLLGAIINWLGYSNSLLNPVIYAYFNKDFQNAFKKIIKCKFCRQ

[3] = target: 5-hydroxytryptamine receptor 6 (Homo sapiens, UniProt P50406); test: Displacement of [3H]-LSD from human 5-HT6 receptor expressed in HEK293 cell membranes after 1 hr by microbeta counting analysis
D(2) dopamine receptor = D(2) dopamine receptor (Homo sapiens, UniProt P14416); test: Displacement of [3H]raclopride from human dopamine D2L receptor expressed in HEK293 cell membranes after 1 hr by microbeta counting analysis; format: cell-based
[4] = Displacement of [3H]-prazosin from adrenergic alpha 1 receptor in pig brain cortical membranes after 50 mins by microbeta counting analysis; format: ADME, cell membranes, Sus scrofa
[5] = Stability in mouse liver microsomes assessed as oxidative metabolism by measuring drug recovery at 10 uM preincubated for 10 mins followed by NADPH addition measured after 30 mins by liquid chromatographic method; format: ADME; settings: liver microsomes, read-out: Drug recovery
[6] = Retention factor, logKw of compound in MeOH/0.01 M phosphate buffer at pH 7.4 by RP-HPLC method; format: physicochemical
[7] = Half life in mouse liver microsomes in presence of NADPH by liquid chromatographic method; format: ADME; settings: liver microsomes

Sequence of 5-hydroxytryptamine receptor 7 (P34969 whole entry): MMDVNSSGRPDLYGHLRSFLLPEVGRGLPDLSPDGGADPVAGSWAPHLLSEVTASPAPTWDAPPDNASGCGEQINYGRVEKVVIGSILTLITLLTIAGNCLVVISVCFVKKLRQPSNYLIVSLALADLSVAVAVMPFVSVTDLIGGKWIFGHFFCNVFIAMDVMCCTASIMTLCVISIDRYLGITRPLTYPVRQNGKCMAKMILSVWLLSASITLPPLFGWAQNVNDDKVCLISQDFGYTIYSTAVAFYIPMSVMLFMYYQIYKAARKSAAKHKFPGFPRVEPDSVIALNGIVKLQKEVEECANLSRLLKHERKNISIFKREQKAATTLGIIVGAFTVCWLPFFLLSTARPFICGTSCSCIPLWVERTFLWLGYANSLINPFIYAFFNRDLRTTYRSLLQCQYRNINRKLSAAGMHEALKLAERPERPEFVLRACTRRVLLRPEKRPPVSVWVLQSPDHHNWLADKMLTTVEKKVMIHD
Sequence of 5-hydroxytryptamine receptor 6 (P50406 whole entry): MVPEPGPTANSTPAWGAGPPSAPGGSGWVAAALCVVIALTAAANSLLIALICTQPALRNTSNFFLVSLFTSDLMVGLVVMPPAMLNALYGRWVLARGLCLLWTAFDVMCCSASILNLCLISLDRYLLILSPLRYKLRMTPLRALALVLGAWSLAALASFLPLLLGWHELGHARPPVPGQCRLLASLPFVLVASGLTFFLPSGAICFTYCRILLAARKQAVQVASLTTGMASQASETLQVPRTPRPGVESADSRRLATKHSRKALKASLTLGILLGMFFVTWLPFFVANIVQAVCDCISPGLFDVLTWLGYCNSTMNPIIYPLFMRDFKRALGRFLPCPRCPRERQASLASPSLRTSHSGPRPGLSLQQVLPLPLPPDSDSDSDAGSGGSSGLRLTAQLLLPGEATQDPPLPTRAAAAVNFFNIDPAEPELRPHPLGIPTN
Sequence of D(2) dopamine receptor (P14416 whole entry): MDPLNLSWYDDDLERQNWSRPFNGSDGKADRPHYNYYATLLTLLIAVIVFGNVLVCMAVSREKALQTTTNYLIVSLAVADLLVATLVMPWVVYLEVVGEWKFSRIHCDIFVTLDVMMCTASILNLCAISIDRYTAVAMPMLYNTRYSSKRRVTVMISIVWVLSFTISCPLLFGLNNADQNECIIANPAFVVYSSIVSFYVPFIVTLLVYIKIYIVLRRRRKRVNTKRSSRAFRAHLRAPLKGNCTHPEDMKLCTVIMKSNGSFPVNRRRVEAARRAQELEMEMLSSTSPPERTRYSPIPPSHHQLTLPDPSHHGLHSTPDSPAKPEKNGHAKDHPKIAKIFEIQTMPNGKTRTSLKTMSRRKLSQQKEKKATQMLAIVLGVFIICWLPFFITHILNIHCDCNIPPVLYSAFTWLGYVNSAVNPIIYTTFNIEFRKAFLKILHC

pKi [1]	pKi [2]	pKi [3]	pKi (D(2) dopamine receptor)	pKi [4]	remaining at 0.5 h, 10 µM [5] [%]	logKw [6]	half-life [7] [min]	Structure (SMILES)
7.80	6.80	5.76	6.87	8.13	5	0.59	–	O=C(CCCCCN1CCN(c2ccccc2-c2ccccc2)CC1)NCc1ccc(OCCN2CCOCC2)cc1
8.02	6.83	5.94	7.19	7.91	3.3	0.63	–	O=C(CCCCCN1CCN(c2ccccc2-c2ccccc2)CC1)NCc1ccc(OCCCN2CCOCC2)cc1
7.28	6.44	5.98	–	5.91	1	0.48	–	O=C(CCOCCN1CCN(c2ncccc2-c2ccccc2)CC1)NCc1ccc(C(F)(F)F)cc1
7.36	6.10	5.65	5.56	6.33	1	0.16	–	O=C(CCOCCN1CCN(c2cccnc2-c2ccccc2)CC1)NCc1ccc(C(F)(F)F)cc1
–	–	–	–	–	< 3	–	–	CS(=O)(=O)Oc1ccc(CNC(=O)CCCCCN2CCN(c3ccccc3-c3ccccc3)CC2)cc1
8.35	7.07	6.38	7.44	7.70	5.4	0.44	–	COCOc1ccc(CNC(=O)CCCCCN2CCN(c3ccccc3-c3ccccc3)CC2)cc1
7.73	6.98	5.79	6.59	7.28	3 to 3.3	0.62	–	COc1ccc(-c2ccccc2N2CCN(CCCCCC(=O)NCc3ccc(OCCCN4CCOCC4)cc3)CC2)cc1
6.97	5.18	5.55	5.71	6.04	9	-0.09	–	N#Cc1ccc(CNC(=O)CCOCCN2CCN(c3cccnc3-c3ccc(F)cc3)CC2)cc1
7.98	7.10	6.25	6.94	7.44	9	0.75	–	C[C@@H](NC(=O)CCCCCN1CCN(c2ccccc2-c2ccccc2)CC1)c1ccccc1
7.68	7.13	5.82	7.12	7.64	3 to 5	0.68	–	CN(C)Cc1ccc(CNC(=O)CCCCCN2CCN(c3ccccc3-c3ccccc3)CC2)cc1
–	–	6.08	6.46	6.61	3	0.75	–	O=C(CCOCCN1CCN(c2ccccc2-c2ccccc2)CC1)NCc1ccc(C(F)(F)F)cc1
7.06	5.42	5.46	–	6.51	2	-0.14	–	N#Cc1ccc(CNC(=O)CCOCCN2CCN(c3cccnc3-c3ccccc3)CC2)cc1
–	–	–	–	–	19	0.32	–	COc1ccc(-c2ccccc2N2CCN(CCOCCC(=O)NCc3ccccn3)CC2)cc1
7.92	6.96	6.07	6.61	7.75	26	0.54	23	COc1ccc(-c2ccccc2N2CCN(CCCCCC(=O)N[C@H](C)c3ccc(C#N)cc3)CC2)cc1
7.84	6.82	5.87	6.38	7.28	19	0.39	–	COc1ccc(-c2ccccc2N2CCN(CCCCCC(=O)NCc3ccc(OCCO)cc3)CC2)cc1
7.27	5.58	5.79	–	6.81	1	0.15	–	N#Cc1ccc(CNC(=O)CCOCCN2CCN(c3ncccc3-c3ccc(F)cc3)CC2)cc1
7.57	5.54	6.03	5.86	8.49	22	0.23	26	N#Cc1ccc(CNC(=O)CCCCCN2CCN(c3ccc(F)cc3-c3ccc(C#N)cc3)CC2)cc1

pKi [1]	pKi [2]	pKi [3]	pKi (D(2) dopamine receptor)	pKi [4]	remaining at 0.5 h, 10 µM [5] [%]	logKw [6]	half-life [7] [min]	Structure (SMILES)
–	–	–	–	–	6	0.47	–	COc1ccc(-c2ccccc2N2CCN(CCCCCC(=O)NCc3ccccn3)CC2)cc1
–	–	–	–	–	23	0.23	–	COc1ccc(-c2ccccc2N2CCN(CCOCCC(=O)NCc3cccnc3)CC2)cc1
8.00	7.18	6.32	7.28	7.33	16	0.75	–	C[C@H](NC(=O)CCCCCN1CCN(c2ccccc2-c2ccccc2)CC1)c1ccccc1
8.19	6.80	6.19	6.49	8.23	8.3	0.38	–	COCOc1ccc(CNC(=O)CCCCCN2CCN(c3ccccc3-c3ccc(OC)cc3)CC2)cc1
–	–	–	–	–	25	0.25	–	COc1ccc(-c2ccccc2N2CCN(CCOCCC(=O)NCc3ccncc3)CC2)cc1
7.72	6.83	6.15	6.51	7.89	24	0.59	29	COc1ccc(-c2ccccc2N2CCN(CCCCCC(=O)N[C@@H](C)c3ccc(C#N)cc3)CC2)cc1
7.60	6.79	5.77	6.43	7.59	15	0.57	–	COc1ccc(-c2ccccc2N2CCN(CCCCCC(=O)NCc3ccc(OCCN4CCOCC4)cc3)CC2)cc1
–	–	–	–	–	< 3	0.68	–	O=C(CCCCCN1CCN(c2ccccc2-c2ccccc2)CC1)NCc1ccccc1
6.59	–	–	–	8.35	10	–	–	O=C(CCCCCN1CCN(c2ccccc2-c2ccccc2)CC1)NCc1ccc(OCCO)cc1
8.10	6.90	6.13	6.53	7.52	25	0.54	18	COc1ccc(-c2ccccc2N2CCN(CCCCCC(=O)NCc3ccc(C#N)cc3)CC2)cc1
–	–	–	–	–	32	0.38	–	COc1ccc(-c2ccccc2N2CCN(CCCCCC(=O)NCc3cccnc3)CC2)cc1
–	–	6.83	–	8.03	5	0.41	–	N#Cc1ccc(CNC(=O)CCOCCN2CCN(c3ccccc3-c3ccccc3)CC2)cc1
6.60	5.22	5.58	5.46	6.58	6	0.14	–	O=C(CCOCCN1CCN(c2cccnc2-c2ccc(F)cc2)CC1)NCc1ccc(C(F)(F)F)cc1
7.28	5.98	5.60	5.61	7.03	13	0.27	–	O=C(CCOCCN1CCN(c2ccccc2-c2ccccc2)CC1)NCc1ccncc1
–	–	–	–	–	35	0.39	–	COc1ccc(-c2ccccc2N2CCN(CCCCCC(=O)NCc3ccncc3)CC2)cc1
7.12	6.23	5.79	–	–	1.6 to 3	0.11	–	N#Cc1ccc(CNC(=O)CCOCCN2CCN(c3ncccc3-c3ccccc3)CC2)cc1
7.49	5.74	5.97	6.41	5.86	2	0.42	–	O=C(CCOCCN1CCN(c2ncccc2-c2ccc(F)cc2)CC1)NCc1ccc(C(F)(F)F)cc1

Structure (SMILES)	pKi [1]	pKi [2]	pKi [3]	pKi (D(2) dopamine receptor)	pKi [4]	remaining at 0.5 h, 10 µM [5] [%]	logKw [6]	half-life [7] [min]
COc1ccc(-c2ccccc2N2CCN(CCCCCC(=O)N[C@@H](C)c3ccccc3)CC2)cc1	7.81	6.99	6.19	6.75	7.66	21	0.71	–
C[C@H]1CN(c2ccccc2-c2ccccc2)CCN1CCCCCC(=O)NCc1ccccc1	7.44	6.69	6.40	6.61	7.37	5	0.59	–
C[C@@H]1CN(c2ccccc2-c2ccccc2)CCN1CCCCCC(=O)NCc1ccccc1	7.85	7.00	6.36	6.75	7.94	3	0.58	–
COc1ccc(-c2ccccc2N2CCN(CCCCCC(=O)N[C@H](C)c3ccccc3)CC2)cc1	7.94	6.87	6.14	6.53	7.44	0.7 to 3	0.71	–
